Reference: patent publication US12583841B2, “Tetrahydropyrrolocyclic compound and application thereof” (Breakthrough Pharmaceuticals Inc., priority 2021, dated 2026)
Like-named read-outs stand apart in the source and are kept apart here.

How the values were obtained:
[1] = Drug concentration in brain tissue and plasma of SD rats; type: in vivo; settings: male, Sprague-Dawley (SD), po, SD rat, p.o. 30 mg/kg
Method: (§1) 4 healthy SD rats aged 6-9 weeks were selected, and the other group was given the test compound at 10 mg/kg by intragastric administration. 2 animals were randomly selected at 0.5 h and 2 h after administration, respectively. Plasma and brain tissue samples were collected, and LC-MS/MS method was used for quantitative analysis of all biological samples.
as §1, with “healthy male” for “healthy”, “selected” for “selected,”, “and” for “and the other group was”, “compound” for “compound at 10 mg/kg”, “selected to be euthanized” for “selected”

[2] = molecular target: T1, OX2R (Homo sapiens, UniProt O43614); experiment: FLIPR intracellular calcium antagonism test, HEK293-OX2R cells; type: cell-based; settings: Orexin A at EC70, read-out: hOX2R IC50
T1 construct: expressed in transfected cells
T1 sequence (O43614 1-444): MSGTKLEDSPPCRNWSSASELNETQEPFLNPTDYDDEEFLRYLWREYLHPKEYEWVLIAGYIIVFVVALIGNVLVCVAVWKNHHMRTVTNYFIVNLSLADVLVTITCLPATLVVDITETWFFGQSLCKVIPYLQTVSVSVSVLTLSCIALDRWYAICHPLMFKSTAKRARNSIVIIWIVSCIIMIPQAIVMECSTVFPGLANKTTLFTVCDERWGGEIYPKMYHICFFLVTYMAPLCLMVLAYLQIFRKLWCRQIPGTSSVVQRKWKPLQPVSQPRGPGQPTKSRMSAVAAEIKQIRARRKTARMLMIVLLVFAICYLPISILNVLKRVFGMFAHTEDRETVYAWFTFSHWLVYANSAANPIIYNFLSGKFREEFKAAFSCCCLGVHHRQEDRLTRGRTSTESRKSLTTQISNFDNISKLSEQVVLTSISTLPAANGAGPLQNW
Method: The change of intracellular calcium signal was detected by FLIPR, and the antagonism of the compounds on OX1R and OX2R receptors was evaluated by using IC50 value of the compounds as an index.
• Cell lines: Transfected HEK293-OX1R and HEK293-OX2R stable cell lines • HEK293-OX1R cell culture medium (DMEM, Invitrogen #11960-044, 10% serum Gibco #10099141, L-Glutamine 1×, Gibco #25030, sodium pyruvate 1×, Gibco #11360, Geneticin 300 μg/mL, Gibco #10131) • HEK293-OX2R cell culture medium (DMEM, Invitrogen #11960-044, 10% serum Gibco #10099141, L-Glutamine 1×, Gibco #25030, sodium pyruvate 1×, Gibco #11360, Geneticin 300 μg/mL, Gibco #10131, Blasticin 2 μg/mL, Invitrogen #R21001)
Experimental Steps and Methods: • a) Cell seeding (HEK293-OX1R and HEK293-OX2R cells) • 1) preheating the culture medium, trypsin and DPBS under water bath at 37° C.; pipetting and removing the medium of cell culture and washing same with 10 mL of DPBS; • 2) adding the preheated trypsin to a culture flask, rotating the culture flask so that the trypsin evenly covered the culture flask, and putting the culture flask in a 37° C., 5% CO2 incubator for digestion for 1-2 min; • 3) suspending the cells with 10-15 mL of medium for each T150 and centrifuging at 800 rpm for 5 min; resuspending the cells with 10 mL of medium, pipetting 1 mL of the cell suspension and counting with Vi-cell; • 4) diluting OX1R cells with medium to 5×10^5 cells/mL, and diluting OX2R cells with medium to 4×10^5 cells/mL, and adding the diluted cells to 384 plate (Greiner.781946) with a multi-channel pipette (50 μL/well, 25000 cells/well for OX1R cells, 20000 cells/well for OX2R cells); placing the cell plate in a 37° C., 5% CO2 incubator overnight. • b) Compound loading: • 1) diluting the compound to 20 mM with DMSO, 3-fold dilution, 8 gradients, duplicate wells, and adding same to a compound plate with an Echo liquid handler; then adding 20 μL of buffer to maintain the final concentration of DMSO of 0.1%. • c) FLIPR experiment: • 1) washing off the cell culture medium in the 384 plate with a vacuum pump, adding […] Direct fluorescent dye, incubating in 37° C., 5% CO2 incubator for 1 h, and balancing at room temperature for another 10 min. • 2) EC50 test: manually diluting Orexin A on ice, 3-fold dilution, 8 gradients, duplicate wells; preparing a DMSO plate and keep the DMSO concentration to be 0.5%; putting the cell plate, OrexinA plate, and DMSO plate in FLIPR respectively, and reading the fluorescence value. • 3) calculating the EC70 value based on the EC50 value of Orexin A; preparing a 5×EC70 solution, adding same to 384 compound plate with a multi-channel pipette, and storing on ice; • 4) putting the compound plate, 5×EC70 plate, cell plate, and FLIPR tip in sequence in FLIPR, running the program, and reading the fluorescence value. • d) Data analyzing: using Prism5.0 to analyze the data, and calculating the IC50 value of the compound.

Kp at 0.5 h ([1]; brain / plasma, 0.5 h, read-out: Brain-to-blood ratio): 0.25
Kp at 2 h ([1]; brain / plasma, 2 h, read-out: Brain-to-blood ratio): 0.19
concentration at 0.5 h ([1]; brain, 0.5 h, read-out: Drug concentration in brain): 1390 nM
concentration at 2 h ([1]; brain, 2 h, read-out: Drug concentration in brain): 212 nM
concentration at 0.5 h ([1]; plasma, 0.5 h, read-out: Drug concentration in plasma): 5600 nM
concentration at 2 h ([1]; plasma, 2 h, read-out: Drug concentration in plasma): 1100 nM
IC50 [2]: 0.042 µM
SMILES: COc1ccc(-n2nccn2)c(C(=O)N2C(c3nc4ccc(OC)cc4[nH]3)CC3CC32)c1 (stereo not shown) [Compound 8]
